Several values for one entry are separate records, joined by “and”; a condition that tells them apart may be missing. Identical values can stand only once. Entries after “also recorded” stand apart in the source; their conditions may differ. Like-named read-outs stand apart in the source and are kept apart here. One block for each compound: values may come before it.
Key:
[1] = system: S6K1 (T389 phosphorylation / activation; reporter for mTOR function); assay: Insulin-induced S6K1 activation and T389 phosphorylation in HEK293 cells (reporter for mTOR function); assay type: cell-based, human; details: HEK293, 200 nM insulin, 100 mM 2-deoxyglucose or 20 mM rotenone, 30 min
Description: Because mTOR is sensitive to amino acids and regulates ribosome biogenesis (Dennis et al., 1999; Gingras et al., 2001; Schmelzle and Hall, 2000), we tested whether its activity may be sensitive to metabolic inhibitors. We used, insulin-induced S6K1 activation and 4E-BP1 phosphorylation as reporters for mTOR function in the presence of glycolytic or mitochohdrial inhibitors to reduce ATP production.
Briefly, human embryonic kidney cells (HEK293) were seeded and maintained as previously described (Pullen et al., Science 279, 707 (1998)). Confluent cells were serum starved for 20 h and then extracted (controls) or treated with 200 nM insulin in the precence or absence of 100 mM 2-deoxyglucose or 20 mM rotenone for 30 min. Cell extraction, kinase assays and Western blot analysis (used to measure S6K1 levels and T389 phosphorylation) were performed as described (Pullen et al.,1998). Phosphospecific antibodies are commercially available (e.g., New England Biolabs).

[2] = system: 4E-BP1 (S65 phosphorylation; mTOR-mediated site); assay type: cell-based, human
Description: Transfections were carried out essentially as described by Manteuffel et al., 1997, Mol Cell. Biol. 17, 5426 with the 4EBP-1 construct described therein. The expression and phosphorylation of transiently-transfected HA-4E-BP1 was measured using a polyclonal anti-HA antibody and phosphospecific antibody against S65, respectively, essentially as described above (Pullen et al., 1998). The anti-HA antibody was obtained from a commercial source (Santa Cruz Biotechnology, Inc). The mTOR-mediated phosphorylation site in 4E-BP1 is S65.

[3] = system: HEK293 cells (intracellular ATP); assay: Intracellular ATP levels in HEK293 cells, luciferase-based assay; assay type: cell-based, human; details: for ATP levels compared to insulin stimulated control (100%): Example 4; for ATP levels as a percentage of the insulin-stimulated control (100%): mock-transfected HEK293, insulin-stimulated, treated as in Example 1 (100 mM 2-deoxyglucose or 20 mM rotenone, 30 min)
Description: Because mTOR is sensitive to glycolitic inhibitors, we wanted to determine whether mTOR is sensitive to alterations in intracellular ATP concentrations. ATP levels were measured from mock-transfected HEK293 cells (using empty vector) treated as in Example 1, using a luciferase-based assay. Retonone and 2-deoxyglucose treatments were carried out on insulin-stimulated cells.
To generate extracts for ATP assays, cells were washed twice with 10 ml ice cold PBS, drained thoroughly, scraped into 1 ml of buffer (100 mM Tris-HCl and 4 mM EDTA pH 7.75) and transferred into an Eppendorf tube before flash freezing in liquid nitrogen. The frozen cells were boiled for 3 min and then placed on ice for 5 min followed by centrifugation at 13,000 rpm for 5 min at 4° C. ATP levels in the extract were measured in a microtiter plate by a Luciferase-based assay (Roche, ATP Bioluminescence Assay Kit CLS II) using a Microlumat LB96P microtiter plate reader (EG&G Berthold). In an illustrative set of experiments and expressing results as a percentage of the insulin-stimulated control (100%), ATP levels increased slightly in insulin treated cells (94% in unstimulated cells), decreased in 2-deoxyglucose treated cells (40-49%) and rotenone-treated cells (75-83%).
(§1) Rapamycin resistance was conferred by fusing glutathione-S-transferase to the NH2-terminus of S6K1 and truncating the COOH-terminus, creating a construct termed GST-ΔC-S6K1 (Pullen et al.,1 998). For the construction of the GST-ΔC-S6K1 (also known as GST-ΔC104-S6K1) and D3E, K100Q-S6K1-GST plasmids, similar cloning strategies were used. S6K1-GST or GST-ΔC-S6K1 from transiently-transfected, serum-starved HEK293 cells were extracted directly or after insulin stimulation with or without the addition of 20 nM rapamycin or 100 nM wortmannin. Kinase activities, expression levels and T389 phosphorylation were carried out essentially as described above. Expression and activity of S6K1-GST or GST-ΔC-S6K1 were measured after insulin stimulation alone or with increasing amounts of 2-deoxyglucose (20, 40 and 100 mM) essentially as described above. Mock-transfected HEK293 cells were treated using the same conditions and extracted for ATP analysis

Protein Kinase B (PKB) = assay: Insulin-induced HA-PKB activation (S473 phosphorylation, in vitro H2B phosphorylation); assay type: cell-based, human; details: 100 mM 2-deoxyglucose, 20 nM rapamycin or 100 nM wortmannin
Description: (§2) Transiently-transfected, HA-tagged PKB activation was measured in vitro using histone 2B (H2B) as substrate (Franke et al., 1995, Cell 81, 727) after immunoprecipitation from serum-starved cells extracted directly or after insulin stimulation with or without the addition of 100 mM 2-deoxyglucose, 20 nM rapamycin or 100 nM wortmannin. Rapamycin and wortmannin were added to serum-starved cells 30 min prior to insulin-stimulation. HA-PKB expression and S473 phosphorylation were measured essentially as described above. HA-MAPK kinase activity toward using myelin basic protein (MBP) was measured from serum-starved cells extracted directly or after 100 nM TPA stimulation in the presence or absence of 20 nM rapamycin or 100 mM 2-deoxyglucose for 30 min (N. Pullen et al., 1998).

[4] = system: Mitogen-Activated Protein Kinase (MAPK); assay: TPA-induced HA-MAPK activation (MBP phosphorylation); assay type: cell-based, human; details: 100 nM TPA, 100 mM 2-deoxyglucose, 30 min
Description: as §2

S6K1-GST = assay: Insulin-induced activation of S6K1-GST (rapamycin sensitive) in transfected HEK293 cells; assay type: cell-based, human; details: 20 nM rapamycin, 100 nM wortmannin, or 2-deoxyglucose 20, 40 and 100 mM
Text: as §1

GST-ΔC-S6K1 = assay: Insulin-induced activation of GST-ΔC-S6K1 (rapamycin-resistant allele) in transfected HEK293 cells; assay type: cell-based, human; details: 20 nM rapamycin, 100 nM wortmannin, or 2-deoxyglucose 20, 40 and 100 mM
Text: as §1

aminoacylated tRNA = assay: tRNA aminoacylation in HEK293 cells (acid/urea gel, Northern blot); assay type: cell-based, human; details: HEK293, insulin stimulation with 2-deoxyglucose
Description: Briefly, total RNA was isolated from serum-starved HEK293 cells directly or after insulin stimulation with or without 2-deoxyglucose or amino acid starvation. As a control marker, tRNA was […] by mild alkaline hydrolysis in 0.1 M Tris-HCl (pH 8.0) at 75° C. for 5 min. After resolution on an acid/urea gel (Enriquez et al., in Methods Enzymol., Acad. Press, San Diego, vol. 264, pp. 183.), tRNA was visualized with ethidium bromide staining. Expression levels and phosphorylation state of endogenous S6K1 and 4E-BP1 were also measured from serum-starved cells, stimulated with insulin in the presence or absence of amino acids in the media essentially as described in Example 1.
To further test this finding, selected tRNAs were examined by Northern blot analysis of the tRNA resolved by acid/urea gel electrophoresis as described above. The individual tRNA species were probed after electrotransfer to nylon membrane, with radiolabelled oligonucleotides specific for tRNALeu and tRNAHis, namely: tRNALeu 5′-GCGCCTTAGACCGCTCGGCCACG-3′ (SEQ ID NO:1); tRNAHis 5′-GGTGCCGTGACTCGGATTCGAACCG-3′ (SEQ ID NO:2); and tRNAThr 5′-GCG AGA AAT GM CTC GCG-3′ (SEQ ID NO:3).

[5] = system: HEK293 cells (amino acid levels); assay: Levels of individual amino acids in extracts of insulin-stimulated HEK293 cells; assay type: cell-based, human; details: 100 mM 2-deoxyglucose
Description: Levels of individual amino acids were measured in extracts prepared from insulin-stimulated HEK293 cells in the presence or absence of amino acids or with 100 mM 2-deoxyglucose treatment and expressed as a percentage of the insulin-stimulated control in the presence of amino acids. Briefly, confluent cultures of HEK293 cells were treated as described above, washed with PBS and drained thoroughly. The cells were then scraped into […] water and sonicated with four 10 sec pulses. Cell debris was removed by centrifugation and sulfosalicylic acid was added to the supernatant to a final concentration of 2%. The samples were then placed on ice for 30 min followed by centrifugation to remove precipitated proteins. The extracts were then analyzed for amino acid content with a Biochrom 20 plus amino acid analyzer (Amersham-Pharmacia Biotech).

mTOR (HA-mTORwt) [6] = target: T1, mTOR (HA-mTORwt) (Homo sapiens, UniProt P42345); assay: In vitro T389 kinase activity of HA-mTORwt immunoprecipitated from treated HEK293 cells; assay type: cell-based; details: cells treated with 100 mM 2-deoxyglucose; assay with 1 mM ATP, 30 min at 30° C.
T1 construct: expressed in transfected cells; host or cells: HEK293 (anti-HA immunoprecipitate)
Description: (§3) Briefly, transiently transfected, hemaglutinin-tagged (HA) wild-type mTOR (HA-mTORwt) from HEK293 cells were serum starved for 16 hours before insulin stimulation. The cells were then treated with (or controls without) 100 mM 2-deoxyglucose or subjected to amino acid starvation as described above. Cell extracts were prepared for immunoprecipitations with a monoclonal anti-HA antibody. The immunocomplex was washed once with 1 M NaCl in assay buffer (30 mM MOPS (pH7.5), 5 mM NaF, 20 mM β-glycerol phosphate, 1 mM dithioerythritol, 0.1% Triton X-100 and 10% glycerol) and twice with assay buffer alone. […] Quantitation for Km measurements was carried out using scanning densitometry and ImageQuant software (Molecular Dynamics).

mTOR (HA-mTORwt) [7] = target: T1, mTOR (HA-mTORwt); assay: mTOR in vitro kinase activity at varying ATP concentrations (apparent Km for ATP); assay type: biochemical; details: S6K1 T389 phosphorylation, ATP 0.2-3.0 mM
Description: as §3
Next, we measured mTOR activity in vitro at ATP concentrations that approached physiological levels of 1-5 mM In mammalian cells (Gribble et al., 2000, J.Biol.Chem. 275, 30046).

most protein kinases = details: read-out: Km for ATP of most cellular kinases; cited from earlier work
[8] = insulin stimulated HEK293 transfected with HA-4E-BP1, Western blot
[9] = summary: S6K1 T389 and 4E-BP1 S65 in insulin-stimulated HEK293

TPA-induced MAPK activation, as judged by MBP phosphorylation [4]: no discernable effect
effect on kinase activity of mTOR in vitro towards T389 of S6K1 (mTOR (HA-mTORwt) [6]): no effect
SMILES: O=CC[C@@H](O)[C@H](O)[C@H](O)CO [2-deoxyglucose]
inhibition of insulin-induced S6K1 T389 phosphorylation and S6K1 activation (S6 phosphorylation) [1]: reducing phosphorylation/activation to background levels; also recorded: blocked insulin-induced activation of S6K1
inhibition of 4E-BP1 S65 phosphorylation [2, 8]: inhibit 4EBP-1 S65 phosphorylation to background levels
inhibition of phosphorylation of mTOR targets (summary of Example 1) [2, 9]: able to reduce phosphorylation of mTOR targets to background levels
ATP levels compared to insulin stimulated control (100%) ([3]; 20 nM 2-deoxyglucose (so in the source)): 57-59%
ATP levels compared to insulin stimulated control (100%) ([3]; 40 nM 2-deoxyglucose (so in the source)): 43-48%
ATP levels compared to insulin stimulated control (100%) ([3]; 100 nM 2-deoxyglucose (so in the source)): 32-36%
ATP levels as a percentage of the insulin-stimulated control (100%) [3]: 40-49%
insulin-induced activation of PKB, as judged by S473 phosphorylation and in vitro phosphorylation of H2B (Protein Kinase B (PKB)): did not inhibit
insulin-induced phosphorylation/activation of S6K1-GST (S6K1-GST): reduced insulin-induced activation of S6K1-GST
insulin-induced phosphorylation/activation of GST-ΔC-S6K1 (GST-ΔC-S6K1): unaffected
effect on total amounts of aminoacylated tRNA (aminoacylated tRNA): Neither insulin stimulation nor 2-deoxyglucose treatment had an effect
amino acid levels (Ala, Glu, Leu, Ile and Val) as a percentage of the insulin-stimulated control in the presence of amino acids [5]: 100-120%

SMILES: Nc1ncnc2c1ncn2[C@@H]1O[C@H](COP(=O)(O)OP(=O)(O)OP(=O)(O)O)[C@@H](O)[C@H]1O [ATP]
Km (mTOR (HA-mTORwt) [7]): ≥ 1000 µM and 1000 µM
Km (most protein kinases): 10 to 20 µM

SMILES: O=C(O)CI [iodoacetic acid]
inhibition of 4E-BP1 S65 phosphorylation [2]: more efficient than dinitrophenol
inhibition of phosphorylation of mTOR targets (summary of Example 1) [2]: able to reduce phosphorylation of mTOR targets to background levels

SMILES: CO[C@H]1C[C@@H]2CC[C@@H](C)[C@@](O)(O2)C(=O)C(=O)N2CCCC[C@H]2C(=O)O[C@H]([C@H](C)C[C@@H]2CC[C@@H](O)[C@H](OC)C2)CC(=O)[C@H](C)/C=C(\C)[C@@H](O)[C@@H](OC)C(=O)[C@H](C)C[C@H](C)/C=C/C=C/C=C/1C [rapamycin]
insulin-induced activation of PKB, as judged by S473 phosphorylation and in vitro phosphorylation of H2B (Protein Kinase B (PKB)): did not inhibit

SMILES: C=C(C)[C@H]1Cc2c(ccc3c2O[C@@H]2COc4cc(OC)c(OC)cc4[C@@H]2C3=O)O1 [rotenone]
inhibition of insulin-induced S6K1 T389 phosphorylation and S6K1 activation (S6 phosphorylation) [1]: inhibitory effect
inhibition of 4E-BP1 S65 phosphorylation [2, 8]: inhibitory effect
inhibition of phosphorylation of mTOR targets (summary of Example 1) [2, 9]: able to inhibit phosphorylation of mTOR targets
ATP levels as a percentage of the insulin-stimulated control (100%) [3]: 75-83%

Reference: patent US20050004068A1, “Modulation of tor” (priority 2001, published 2005)
